pIC50: −log10 of the molar value.
Columns and labels:
[1] = system: PAXF1657 control empty vector cell line; assay: 7-day proliferation assay, PAXF1657 control empty vector cell line (Example 9); format: cell-based; conditions: 168 h; for GI50: 7-day compound treatment, CellTiter-Glo; for pIC50: Cell Line: PAXF1657 empty vector (EV) cell line, 7-day, read-out: C: 7-day proliferation assay: IC50 GeoMean
Outline: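 Cells plated at 500 per well and attached overnight. Next, 10-point inhibitor series added (30 μM-0.0002 μM, 0.3% DMSO) and a day-0 viability plate read. Then, after 3 days, medium with fresh compound. Finally, viability after 4 more days via CellTiter-Glo.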

GRK2 [2] = target: T1, GRK2 (Homo sapiens, UniProt P25098); assay: ADPGlo GRK2 Inhibition Assay (Example 8); format: biochemical
T1 construct: purchased SignalChem A14-10G
T1 sequence (P25098 1-689): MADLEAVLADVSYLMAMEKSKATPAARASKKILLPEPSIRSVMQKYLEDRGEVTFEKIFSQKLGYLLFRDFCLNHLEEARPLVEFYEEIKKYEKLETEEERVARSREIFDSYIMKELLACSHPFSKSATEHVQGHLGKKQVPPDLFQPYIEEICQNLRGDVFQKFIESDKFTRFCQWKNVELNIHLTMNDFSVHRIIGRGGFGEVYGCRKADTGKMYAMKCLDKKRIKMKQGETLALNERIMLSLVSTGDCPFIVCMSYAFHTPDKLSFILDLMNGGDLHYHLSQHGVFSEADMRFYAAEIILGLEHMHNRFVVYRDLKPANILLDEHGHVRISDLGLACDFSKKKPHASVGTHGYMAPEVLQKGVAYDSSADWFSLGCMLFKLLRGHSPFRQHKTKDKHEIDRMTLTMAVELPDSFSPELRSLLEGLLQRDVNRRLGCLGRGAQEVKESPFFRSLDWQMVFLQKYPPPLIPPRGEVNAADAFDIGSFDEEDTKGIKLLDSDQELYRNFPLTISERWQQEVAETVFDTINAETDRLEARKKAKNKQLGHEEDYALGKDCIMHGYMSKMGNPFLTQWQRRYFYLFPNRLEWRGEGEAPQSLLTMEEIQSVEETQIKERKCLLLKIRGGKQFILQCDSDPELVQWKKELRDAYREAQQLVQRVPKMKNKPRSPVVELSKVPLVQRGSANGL
Outline: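 GRK2 (15 nM 2× enzyme solution) was preincubated 15 min with compound, then reacted 180 min at room temperature with 2× mix of 20 μM ATP plus GRKtide in HEPES pH 7.5, MgCl2, Tween-20, DTT. ADP was detected by ADP-Glo luminescence. Percent inhibition was normalised to enzyme and no-enzyme controls, with dose-response curves from threefold dilutions starting at 100 μM.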

[3] = system: PAXF1657 cell line stably overexpressing GRK2; assay: 7-day proliferation assay, PAXF1657 stably overexpressing GRK2 (Example 9); format: cell-based; conditions: for GI50: 168 h, 7-day compound treatment, CellTiter-Glo; for Ratio GRK2 overexpressing cells/Empty vector cells: GI50 in GRK2 overexpressing PAXF1657 over GI50 in empty vector PAXF1657
Description: In order to identify compounds specific for GRK2, we generated two isogenic cell line pairs of the pancreatic cancer cell line PAXF1657, a pair of cells stably overexpressing GRK2 cDNA or the control empty vector and a cell line pair of PAXF1657 GRK2 knockout clonal cells versus non-targeting control clonal cells.
Proliferation Assay: Cellular anti-proliferative activity of compounds was assessed by using the pancreatic cancer cell line, PAXF1657, stably overexpressing GRK2 cDNA or the control empty vector, as well as the parental urinary bladder cancer cell line, 5637. In addition, we also took advantage of GRK2 knockout cell lines that were generated via CRISPR. Cell lines were seeded into tissue culture treated, white-walled, 96-well plates at a density of 500 cells/well in RPMI1640 media supplemented with 10% H.I. FBS and penicillin/streptomycin. Plates were incubated overnight at 37° C., 5% CO2 to allow cells to adhere to the wells. GRK2 inhibitors were added to the cells using a 10-point dilution series with a final concentration ranging from 30 μM-0.0002 μM in 0.3% DMSO. At the time of compound addition, a set of plates, that were not treated with compounds, were collected and cell viability was measured using CellTiter-Glo (Promega). CellTiter-Glo reagent was added to the designed plates and luminescence was measuring using a Biotek Synergy plate reader. The compound treated cells were incubated for 3 days at 37° C., 5% CO2. The media was then aspirated from each well and replaced with fresh media containing GRK2 inhibitors. The compound treated cells were then incubated for an additional 4 days at 37° C., 5% CO2. Cell viability was assessed and at end of the 7-day compound treatment by CellTiterGlo.

GRK2 [4] = target: T1, GRK2; assay: GRK2 Inhibition Assay (TR-FRET, Example 7); format: biochemical
Outline: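 GRK2 at 1 nM preincubated 30 min with compound, then reacted 90 min at room temperature with 7 μM ATP and 50 nM ULight-TopoIIα in HEPES/MgCl2/DTT buffer. Phosphorylation detected by TR-FRET after Eu anti-TopoIIα and EDTA addition, 60 min.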

[5] = 7.5 nM GRK2, 10 μM ATP, ADP-Glo, read-out: GRK2 IC50 (nM) (Example 8)
[6] = 1 nM GRK2, 7 μM ATP, TR-FRET, read-out: GRK2 IC50 (nM) (Example 7)
[7] = Enzyme Assay A, ADPGlo (Example 8), read-out: A: Enzymatic GRK2: IC50 (nM) (Example 8)
[8] = Enzyme Assay B, TR-FRET (Example 7), read-out: B: Enzymatic GRK2: IC50 (nM) (Example 7)

Structure (SMILES)	IC50 (GRK2 [2]; [5]) [nM]	IC50 (GRK2 [4]; [6]) [nM]	IC50 (GRK2 [2]; [7]) [nM]	IC50 (GRK2 [4]; [8]) [nM]	GI50 [1] [µM]	GI50 [3] [µM]	Ratio GRK2 overexpressing cells/Empty vector cells [3]	pIC50 [1]
COc1cccnc1CNC(=O)c1cccc(NCc2nnc(-c3ccncc3)[nH]2)c1 [compound 33]	7.8	–	–	–	1.33	17.7	13.27	–
Cn1c(CNc2cccc(C(=O)NCc3ccccc3C(F)(F)F)c2)nnc1-c1ccncc1 [115h, reference compound]	–	–	–	–	8.91	10	1.12	–
Cn1c(CNc2cccc(C(=O)NC3(c4ccccc4)CCOCC3)c2)nnc1-c1ccncn1 [compound 8]	140	170	–	–	> 30	22.7	–	–
O=C(NCc1ccccc1C(F)(F)F)c1cccc(NCc2nnc3n2CCCOc2ccccc2-3)c1 [133a, reference compound]	–	–	–	–	0.14	0.24	1.71	–
Cc1ccnc(C(C)NC(=O)c2cccc(NCc3nnc(-c4ccncn4)n3C)c2)c1 (centres unmarked) [compound 25]	–	–	–	–	> 30	25.8	–	–
CCn1ncc(CNC(=O)c2cccc(NCc3nnc(-c4ccncn4)n3C)c2)c1F [compound 15]	18	–	–	–	4.01	17.7	4.42	–
CCCn1c(CNc2cccc(C(=O)NCc3ccccc3C(F)(F)F)c2)nnc1-c1ccncn1 [139c, reference compound]	–	–	–	–	0.84	1.47	1.75	–
Cn1c(CNc2cccc(C(=O)NCc3cccc(F)c3)c2)nnc1-c1ccncn1 [compound 2]	49	56	–	–	1.79	20.5	11.46	–
COc1ccc(CNC(=O)c2cccc(NCc3nnc(-c4ccncn4)n3C)c2)c(F)c1 [compound 5]	19	5.4	–	–	1.51	10.3	6.79	–
Cn1c(CNc2cccc(C(=O)NCc3ccc(-n4nccn4)cc3)c2)nnc1-c1ccncn1 [drawing 601]	–	–	2.1	20	–	–	–	< 4.52
Cn1c(CNc2cccc(C(=O)N[C@H]3CCOc4cccnc43)c2)nnc1-c1ccncn1	–	–	144	990	–	–	–	< 5.00

The next lines start with results.

IC50 (GRK2 [2]; [5]) [nM]	IC50 (GRK2 [4]; [6]) [nM]	IC50 (GRK2 [2]; [7]) [nM]	IC50 (GRK2 [4]; [8]) [nM]	Structure (SMILES)	GI50 [1] [µM]	GI50 [3] [µM]	Ratio GRK2 overexpressing cells/Empty vector cells [3]	pIC50 [1]
10	–	–	–	Cn1c(CNc2cccc(C(=O)NC3CCOc4c(Cl)cccc43)c2)nnc1-c1ccncn1 (centres unmarked) [compound 20]	1.03	7.99	7.76	–
44	19	–	–	COc1cccc(OC)c1CNC(=O)c1cccc(NCc2nnc(-c3ccncn3)n2C)c1 [compound 6]	2.08	12.5	6.01	–
12	–	–	–	C[C@@H](NC(=O)c1cccc(NCc2nnc(-c3ccncn3)n2C)c1)c1ncccc1Cl [compound 29]	1.24	5.01	4.04	–
10	–	–	–	Cc1cccnc1C(C)NC(=O)c1cccc(NCc2nnc(-c3ccncn3)n2C)c1 (centres unmarked) [compound 17]	2.11	10.3	4.89	–
–	4.5	–	–	CCCn1c(CNc2cc(C(=O)NCc3ccccc3C(F)(F)F)ccn2)nnc1-c1ccncn1 [compound 35, 2-(((4-propyl-5-(pyrimidin-4-yl)-4H-1,2,4-triazol-3-yl)methyl)amino)-N-(2-(trifluoromethyl)benzyl)isonicotinamide]	1.3	3.22	2.49	–
9.8	–	–	–	Cn1c(CNc2cccc(C(=O)N[C@H]3COc4ccccc43)c2)nnc1-c1ccncn1 [compound 26]	0.68	4.18	6.15	–
27	4.7	–	–	Cn1c(CNc2cccc(C(=O)NCc3cccc4c3OCC4)c2)nnc1-c1ccncn1 [compound 1, N-((2,3-dihydrobenzofuran-7-yl)methyl)-3-(((4-methyl-5-(pyrimidin-4-yl)-4H-1,2,4-triazol-3-yl)methyl)amino)benzamide]	1.97	24.3	12.34	–
18	10	–	–	Cn1c(CNc2cccc(C(=O)N[C@H]3CCOc4ccccc43)c2)nnc1-c1ccncn1 [compound 3]	1.16	8.61	7.42	–
36	28	–	–	Cn1c(CNc2cccc(C(=O)NCc3cccnc3C(F)(F)F)c2)nnc1-c1ccncn1 [compound 4]	0.79	4.59	5.79	–
30	33	–	–	CCOc1ccccc1CNC(=O)c1cccc(NCc2nnc(-c3ccncn3)n2C)c1 [compound 7]	3.32	14.2	4.29	–
–	–	3	20	Cc1ccn2c(CNC(=O)c3cccc(NCc4nnc(-c5ccncn5)n4C)c3)cnc2c1 [drawing 620]	–	–	–	5.25
–	–	6.2	21	CCS(=O)(=O)c1ccc(CNC(=O)c2cccc(NCc3nnc(-c4ccncn4)n3C)c2)cc1 [drawing 618]	–	–	–	< 4.52
–	–	4.1	2.5	O=C(N[C@H]1CCOc2ccccc21)c1cccc(NCc2nnc(-c3ccncn3)n2CCO)c1	–	–	–	6.98
51	–	–	–	CCc1cnccc1CNC(=O)c1cccc(NCc2nnc(-c3ccncn3)n2C)c1 [compound 12]	0.97	8.01	8.24	–
–	–	6.3	20	Cn1c(CNc2cccc(C(=O)NCc3ccc(C#N)cc3)c2)nnc1-c1ccncn1 [drawing 603]	–	–	–	< 4.52
15	–	–	–	Cn1c(CNc2cccc(C(=O)NCc3cc(F)cc(F)c3)c2)nnc1-c1ccncn1 [compound 10]	1.58	13.7	8.65	–

— patent publication US20230009608A1, “GRK2 INHIBITORS AND USES THEREOF” (Cygnal Therapeutics, Inc., priority 2020, published 2023)
